According to article PMC5342726, “Identification of small molecule inhibitors of ERCC1-XPF that inhibit DNA repair and potentiate cisplatin efficacy in cancer cells” (Oncotarget, 2016):

Legend:
ERCC1-XPF [1] = molecular target: T1, ERCC1-XPF (Homo sapiens, UniProt P07992+Q92889); test: Gel-based in vitro incision assay, ERCC1-XPF; assay type: biochemical; conditions: purified ERCC1-XPF, 5'-32P DNA substrate, 37°C; read-out: IC50 from the gel-based assay
T1 construct: made in house; host or cells: Sf9 insect cells, baculovirus (obtained from Aziz Sancar)
T1 sequence (Q92889 1-916): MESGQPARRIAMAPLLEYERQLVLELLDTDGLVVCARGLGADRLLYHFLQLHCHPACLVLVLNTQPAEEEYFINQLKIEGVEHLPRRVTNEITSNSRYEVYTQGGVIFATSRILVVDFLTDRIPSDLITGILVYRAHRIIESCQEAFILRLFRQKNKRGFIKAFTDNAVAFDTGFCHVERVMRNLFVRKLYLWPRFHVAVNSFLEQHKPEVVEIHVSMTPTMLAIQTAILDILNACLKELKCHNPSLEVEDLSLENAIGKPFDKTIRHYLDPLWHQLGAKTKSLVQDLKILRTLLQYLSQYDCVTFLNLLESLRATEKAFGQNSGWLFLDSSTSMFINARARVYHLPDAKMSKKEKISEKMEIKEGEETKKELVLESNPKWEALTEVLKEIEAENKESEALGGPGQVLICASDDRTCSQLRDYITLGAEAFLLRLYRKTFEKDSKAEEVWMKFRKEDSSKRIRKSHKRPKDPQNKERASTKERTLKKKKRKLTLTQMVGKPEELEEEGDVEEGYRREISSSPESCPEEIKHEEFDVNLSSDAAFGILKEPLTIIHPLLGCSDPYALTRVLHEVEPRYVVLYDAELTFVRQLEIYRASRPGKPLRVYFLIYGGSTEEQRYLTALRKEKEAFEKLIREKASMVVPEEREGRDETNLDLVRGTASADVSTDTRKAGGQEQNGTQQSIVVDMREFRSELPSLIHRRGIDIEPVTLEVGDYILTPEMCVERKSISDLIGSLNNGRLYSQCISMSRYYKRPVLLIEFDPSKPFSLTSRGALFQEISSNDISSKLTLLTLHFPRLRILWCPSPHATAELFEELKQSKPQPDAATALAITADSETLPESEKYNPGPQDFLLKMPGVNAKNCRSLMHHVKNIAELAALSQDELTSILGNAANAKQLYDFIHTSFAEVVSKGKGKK
T1 sequence (P07992 1-297): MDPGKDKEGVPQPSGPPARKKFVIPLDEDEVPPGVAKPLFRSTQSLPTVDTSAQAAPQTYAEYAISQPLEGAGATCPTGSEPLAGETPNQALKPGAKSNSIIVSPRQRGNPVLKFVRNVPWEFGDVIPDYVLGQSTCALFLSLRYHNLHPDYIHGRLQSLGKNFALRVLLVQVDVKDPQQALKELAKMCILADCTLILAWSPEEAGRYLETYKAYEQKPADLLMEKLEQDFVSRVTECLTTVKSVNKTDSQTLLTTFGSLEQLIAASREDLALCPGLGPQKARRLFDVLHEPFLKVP
Procedure: The gel-based in vitro incision assay has been described and extensively used. Here, we titrated Hit 1 (Figure 2A) with ERCC1-XPF or control endonuclease HhaI (Figure 2B) on ice and reactions were initiated by the addition of the 5'-[^32P] radiolabeled DNA substrate at 37°C. The products are visualized via phosphorimager analysis and the ERCC1-XPF or HhaI incised product is illustrated as a faster migrating band in the gel (Figure 2A and 2B).
Hits from the HTS fluorescence screen were validated in a gel based nuclease activity assay as previously described. This assay is robust and highly quantitative. Briefly, the 26- mer DNA substrate (Figure 1) was labeled on the 5'-terminus with [γ^32P]-ATP using T4 polynucleotide kinase (NEB) for 30 minutes at 37°C. The 5'-labeled DNA substrate was annealed to its complementary strand by heating to 95°C for 5 minutes, followed by 65°C and then 37°C for a total of 2 hours. This substrate was gel-purified on a 10% native polyacrylamide gel in TBE (Tris, borate, EDTA electrophoresis buffer), developed, cut and kept for gel elution overnight at 4°C. Post gel elution, the substrate was ethanol precipitated and the counts were determined. The final substrate was stored at −20°C. […]

ERCC1-XPF [2] = molecular target: T1, ERCC1-XPF; test: EMSA, binding of ERCC1-XPF to DNA; conditions: for effect on binding of purified ERCC1-XPF to DNA: compound titration, concentrations used in further in vitro experiments
Procedure: In order to study if the compounds' inhibitory activity of ERCC1-XPF incision is due to inhibition of DNA binding ability, we performed EMSAs [23]. […] In this assay, we incubated the titrated Hit 1 or 2 respectively with purified ERCC1-XPF on ice and reactions were initiated by the addition of the 5'-[^32P] radiolabeled DNA substrate 37°C. The samples were separated on a 10% native gel and the products were visualized via phosphorimager analysis.
Sciences Core at Karmanos Cancer Institute using DNA Binding-electrophoretic mobility shift assay
was used for testing the effect of compounds on the DNA
in SF9 insect cells using a baculovirus expression system requires metal for DNA incision, MgCl2 was excluded
0.1M EDTA was added to the
Post incubation, glutaraldehyde was added to a final
column, which was initially loaded and washed with a low minutes at 37°C. The reaction was run on a 10% native

ERCC1 protein = test: Western blot of ERCC1 protein stability; assay type: cell-based; conditions: 50 μM, 24, 48 and 72 hours, compared to cisplatin control treatment
Procedure: In order to study if the compounds' inhibitory activity of ERCC1-XPF incision is due to inhibition of DNA binding ability, we performed EMSAs. One possibility for ERCC1-XPF enzyme inhibition is via inhibition of the ERCC1-XPF binding to DNA. In this assay, we incubated the titrated Hit 1 or 2 respectively with purified ERCC1-XPF on ice and reactions were initiated by the addition of the 5'-[^32P] radiolabeled DNA substrate 37°C. The samples were separated on a 10% native gel and the products were visualized via phosphorimager analysis. […] If these compounds were affecting the protein-protein interaction between ERCC1 and XPF, we would expect to observe loss of protein following treatment similar to what we have observed with ERCC1 and XPF knockdowns.
Supplementary Figure S3: A. Analysis of 16168 and 143099 on XPG incision activity. Compounds were titrated and inhibition of
XPG incision activity was quantified for 16168 (open circles) or 143099 (filled circles). The results are presented as the mean ± SEM of 3
independent experiments. B. Western bots assessing ERCC1 protein stability following cisplatin (IC50 concentration), 143099 (50 μM) and […]

For `Cc1ccc(S(=O)(=O)Oc2cc(S(=O)(=O)O)cc3cc(S(=O)(=O)O)cc(N)c23)cc1` [NSC16168], the IC50 (ERCC1-XPF [1]) was ~500 nM, the “effect on binding of purified ERCC1-XPF to DNA” value (ERCC1-XPF [2]) was “does not affect DNA binding of ERCC1-XPF” and the “effect on binding of ERCC1-XPF to DNA at the highest concentrations” value (ERCC1-XPF [2]; highest concentrations) was “minor effect on the DNA binding”. For the same compound, the “effect on ERCC1 protein levels” value (ERCC1 protein) was “neither Hit 1 nor Hit 2 affects ERCC1 protein levels”.

`Oc1cc(O)c2c(c1)OC(c1ccc(O)c(O)c1)C(O)C2c1c(O)cc(O)c2c1OC(c1ccc(O)c(O)c1)C(O)C2` (stereo not shown) [NSC143099] was tested, and the IC50 (ERCC1-XPF [1]) was ~25 nM, the “effect on binding of purified ERCC1-XPF to DNA” value (ERCC1-XPF [2]) was “does not affect the binding of purified ERCC1-XPF to DNA” and the “effect on ERCC1 protein levels” value (ERCC1 protein) was “neither Hit 1 nor Hit 2 affects ERCC1 protein levels”.
